Results on 3 molecules are retold here after patent publication US9730450B2, “Use of isosorbide monoesters as antimicrobial active substances” (CLARIANT INTERNATIONAL LTD., priority 2011, dated 2017).

Converted amounts (≈) assume the structure as drawn. Where two headings read alike, the source gives them in different places.

For one assay, the system named is Candida albicans. The assay is described as follows: MIC agar dilution test, yeasts. Format: cell-based. Conditions: Candida albicans (Y); Sabouraud 4% dextrose agar buffered to pH 5.6; corrected for dilution effect of butyl polyglycol; read-out: Minimum inhibitory concentration (MIC). On the procedure:
(§1) Below, the antimicrobial efficacy of isosorbide caprylate 1 in butyl polyglycol against bacteria, fungi and yeasts is examined. For the tests with bacteria, isosorbide caprylate 1 was diluted with butyl polyglycol and then, at 50° C., added to liquid CASO agar (casein-peptone agar) buffered to pH 7 (+1-0.2) in various concentrations (hereinbelow referred to as compositions B1, B2, etc.). For the tests with fungi and yeasts, isosorbide caprylate 1 was diluted with butyl polyglycol and then added to liquid Sabouraud 4% dextrose agar buffered to pH 5.6 (+1-0.2) in various concentrations (hereinbelow referred to as compositions PH1, PH2, etc.). The compositions B1, B2, etc. and PH1, PH2 etc. were each poured into Petri dishes and each inoculated with identical amounts of bacteria, fungi and yeasts. The minimum inhibitory concentration (MIC) is the concentration at which inhibition of the growth of the bacteria, fungi and yeasts in the compositions B1, B2, etc. and PH1, PH2, etc. occurs.
(§2) Analogously to the determination of the antimicrobial activity of isosorbide caprylate 1, the antimicrobial activity firstly of a mixture comprising 89.6% by weight of isosorbide dicaprylate and 9.4% by weight of isosorbide monocaprylate (remainder: 1% by weight) (hereinbelow referred to as “isosorbide dicaprylate”) and, secondly, pure isosorbide was determined in further test series.
On the technique in general: In agar dilution the substance is mixed into plates at graded concentrations.

A further assay has as its system Penicillium funicolosium. The assay is described as follows: MIC agar dilution test, fungi. The format is cell-based. Conditions: Penicillium funicolosium (F); Sabouraud 4% dextrose agar buffered to pH 5.6; corrected for dilution effect of butyl polyglycol; read-out: Minimum inhibitory concentration (MIC). On the procedure: as §1, §2
The next assay concerns Fusarium solani. The assay is described as follows: MIC agar dilution test, fungi. The settings on record: Fusarium solani (F); Sabouraud 4% dextrose agar buffered to pH 5.6; corrected for dilution effect of butyl polyglycol; read-out: Minimum inhibitory concentration (MIC). The format is cell-based. On the procedure:
as §1, §2

Another assay relates to Aspergillus terreus. The assay is described as follows: MIC agar dilution test, fungi. The format is cell-based. The settings on record: Aspergillus terreus (F); Sabouraud 4% dextrose agar buffered to pH 5.6; corrected for dilution effect of butyl polyglycol; read-out: Minimum inhibitory concentration (MIC). The method, then: as §1, §2
For another assay, the system named is Penicillium minioluteum. The assay is described as follows: MIC agar dilution test, fungi. Conditions: Talaromyces minioluteus; Penicillium minioluteum (F); Sabouraud 4% dextrose agar buffered to pH 5.6; corrected for dilution effect of butyl polyglycol; read-out: Minimum inhibitory concentration (MIC). Format: cell-based. On the procedure:
as §1, §2

For the next assay, the system named is Aspergillus brasiliensis. The assay is described as follows: MIC agar dilution test, fungi. Format: cell-based. Conditions: Aspergillus brasiliensis (F); Sabouraud 4% dextrose agar buffered to pH 5.6; corrected for dilution effect of butyl polyglycol; read-out: Minimum inhibitory concentration (MIC). The method, then:
as §1, §2

For the next assay, the system named is Pseudomonas oleovorans. The assay is described as follows: MIC agar dilution test, bacteria. The format is cell-based. The settings on record: Ectopseudomonas oleovorans; Pseudomonas oleovorans (B); CASO agar buffered to pH 7; corrected for dilution effect of butyl polyglycol; read-out: Minimum inhibitory concentration (MIC). The method, then: as §1, §2
The next assay has as its system Staphylococcus aureus. The assay is described as follows: MIC agar dilution test, bacteria. Format: cell-based. The settings on record: Staphylococcus aureus (B); CASO agar buffered to pH 7; corrected for dilution effect of butyl polyglycol; read-out: Minimum inhibitory concentration (MIC). On the procedure: as §1, §2
Another assay relates to Escherichia coli. The assay is described as follows: MIC agar dilution test, bacteria. The settings on record: Escherichia coli (B); CASO agar buffered to pH 7; corrected for dilution effect of butyl polyglycol; read-out: Minimum inhibitory concentration (MIC). Format: cell-based. The method, then:
as §1, §2

The next assay relates to Proteus vulgaris. The assay is described as follows: MIC agar dilution test, bacteria. The format is cell-based. The settings on record: Proteus vulgaris (B); CASO agar buffered to pH 7; corrected for dilution effect of butyl polyglycol; read-out: Minimum inhibitory concentration (MIC). On the procedure:
as §1, §2

In a further assay the test system is Pseudomonas aeruginosa. The assay is described as follows: MIC agar dilution test, bacteria. Format: cell-based. Conditions: Pseudomonas aeruginosa (B); CASO agar buffered to pH 7; corrected for dilution effect of butyl polyglycol; read-out: Minimum inhibitory concentration (MIC). On the procedure:
as §1, §2

A further assay relates to Citrobacter freundii. The assay is described as follows: MIC agar dilution test, bacteria. Format: cell-based. The settings on record: Citrobacter freundii (B); CASO agar buffered to pH 7; corrected for dilution effect of butyl polyglycol; read-out: Minimum inhibitory concentration (MIC). The method, then:
as §1, §2

In a further assay the test system is Klebsiella pneumoniae. The assay is described as follows: MIC agar dilution test, bacteria. Format: cell-based. Conditions: Klebsiella pneumoniae (B); CASO agar buffered to pH 7; corrected for dilution effect of butyl polyglycol; read-out: Minimum inhibitory concentration (MIC). The method, then: as §1, §2
The next assay concerns Enterobacter aerogenes. The assay is described as follows: MIC agar dilution test, bacteria. The format is cell-based. Conditions: Klebsiella aerogenes; Enterobacter aerogenes (B); CASO agar buffered to pH 7; corrected for dilution effect of butyl polyglycol; read-out: Minimum inhibitory concentration (MIC). The method, then: as §1, §2
Assay [1] concerns bacteria, fungi and yeasts. The assay is described as follows: Antimicrobial efficacy, overall statement. Format: cell-based. On the procedure:
as §1, §2

The test system of assay [2] is bacteria, fungi and yeasts. Conditions: general statement, no test described, cited from earlier work.

In the case of `O[C@@H]1CO[C@H]2[C@@H]1OC[C@@H]2O` [isosorbide], the MIC with Candida albicans, with Penicillium funicolosium, in the assay on Fusarium solani, with Aspergillus terreus, with Penicillium minioluteum and with Aspergillus brasiliensis was 10000 µg/mL (≈ 68.4 mM) each time. For the same molecule, the MIC in the assay with Pseudomonas oleovorans, in the assay on Staphylococcus aureus, in the assay with Escherichia coli, in the assay with Proteus vulgaris, in the assay on Pseudomonas aeruginosa and in the assay with Citrobacter freundii was 10000 µg/mL (≈ 68.4 mM) in each case. The MIC in the assay with Klebsiella pneumoniae and in the assay on Enterobacter aerogenes was 10000 µg/mL (≈ 68.4 mM) throughout. Besides, in assay [1] (summary of MIC results of Tables 1 and 2), the “antimicrobial activity (in words)” value is “neither isosorbide nor isosorbide dicaprylate is antimicrobially active”.
Regarding isosorbide monocaprylate, the “antimicrobial activity (in words)” value in assay [1] (concluded from activity of isosorbide caprylate 1 and inactivity of its other constituents, in particular as fungicide against fungi and yeasts) is “significant antimicrobial activity”.
For the molecule `CCCCCCCC(=O)O` [caprylic acid], the entries for the “antimicrobial activity (in words)” value in [2] (at a pH of 6 or above) and in assay [2] were “no antimicrobial activity” and “antimicrobially effective”, respectively.
